How the values were obtained:
[1] = system: HEK 293, M468 and NCI-H226; assay: In vitro cytotoxicity by MTT assay, summary over all cell lines; type: cell-based; settings: on all cell lines
Description: The cancer cell line cultures of HEK 293 ([…]), BT474 (breast cancer cell line) and NCI-H226 (lung cancer) were obtained from Pasteur Institute of India, Coonoor, India, and were cultured in RPMI-1640 and 10 % heat-[…] New born calf serum with antibiotics [penicillin ([…]), streptomycin (100 μg/mL) and amphotericin B (25 μg/mL)]. The cells were maintained at 37 °C in a humidified atmosphere with 5 % CO2 and were subcultured twice a week.
The monolayer cell culture (100 μL) was trypsinized, and the cell count was adjusted to […] using medium containing 10 % new born calf serum. To each well of the 96-well microtitre plate, the diluted cell suspension (approximately 10,000 cells) (0.1 mL) was added and kept for 24 h in incubator at 37 °C in 5 % CO2 atmosphere for cell monolayer formation. After 24 h, when a partial monolayer was formed at the bottom of the well, the supernatant was flicked off, the monolayer was washed once, and different drugs, i.e. synthesized compounds (100 μL), were added to the cells in microtitre plates. The plates were then incubated at 37 °C for 3 days in 5 % CO2 atmosphere, and microscopic examination was carried out and observations recorded every 24 h. After 72 h, the sample solution in the wells was flicked off; MTT dye ([…]) was added to each well; plates were gently shaken and incubated for 4 h at 37 °C in 5 % CO2 incubator. The supernatant was removed and propanol (50 μL) was added; the plates were gently shaken to solubilize the formed formazan. The absorbance was measured using a microplate reader at a wavelength of 490 nm (Edmondson et al., [1988]; Prasad et al., [2005]; Chiruvella et al., [2008]; Chang et al., [2007]).

[2] = In vitro cytotoxicity by MTT assay, HEK 293; type: cell-based, human; settings: human, HEK 293 cells; for cytotoxicity at 72 h, 0.005 µM / cytotoxicity at 72 h, 0.015 µM / cytotoxicity at 72 h, 0.045 µM / cytotoxicity at 72 h, 0.13 µM / cytotoxicity at 72 h, 0.41 µM / cytotoxicity at 72 h, 1.23 µM / cytotoxicity at 72 h, 3.7 µM / cytotoxicity at 72 h, 11.11 µM / cytotoxicity at 72 h, 33.33 µM / cytotoxicity at 72 h, 100 µM: read-out: % cytotoxicity (100 − % cell survival) of HEK 293 cell line
Summary of the method: (§1)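 Cells seeded at ~10,000/well in RPMI-1640 with 10 % newborn calf serum, grown 24 h, then exposed to compounds for 72 h at 37 °C, 5 % CO2. Viability read by MTT (4 h), formazan dissolved in propanol, absorbance at 490 nm.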

[3] = system: BT474 (breast cancer cell line); assay: In vitro cytotoxicity by MTT assay, BT474; type: cell-based; settings: Homo sapiens, 72 h, read-out: % cytotoxicity (100 − % cell survival) of BT474 cell line; for cytotoxicity at 0.005 µM: BT-474, 0.005 μM; for cytotoxicity at 0.015 µM: BT-474, 0.015 μM; for cytotoxicity at 0.045 µM: BT-474, 0.045 μM; for cytotoxicity at 0.13 µM: BT-474, 0.13 μM; for cytotoxicity at 0.41 µM: BT-474, 0.41 μM; for cytotoxicity at 1.23 µM: BT-474, 1.23 μM; for cytotoxicity at 3.7 µM: BT-474, 3.7 μM; for cytotoxicity at 11.11 µM: BT-474, 11.11 μM; for cytotoxicity at 33.33 µM: BT-474, 33.33 μM; for cytotoxicity at 100 µM: BT-474, 100 μM
Summary of the method: as §1

[4] = system: NCI-H226 (lung cancer cell line); assay: In vitro cytotoxicity by MTT assay, NCI-H226; type: cell-based; settings: Homo sapiens, 72 h; for cytotoxicity at 0.005 µM: NCI-H226, 0.005 μM; for cytotoxicity at 0.005 µM / cytotoxicity at 0.045 µM / cytotoxicity at 0.13 µM / cytotoxicity at 0.41 µM / cytotoxicity at 1.23 µM / cytotoxicity at 3.7 µM / cytotoxicity at 11.11 µM / cytotoxicity at 33.33 µM / cytotoxicity at 100 µM: read-out: % Cytotoxicity (100 − % cell survival) of NCI-H226 cell line; for cytotoxicity at 0.045 µM: NCI-H226, 0.045 μM; for cytotoxicity at 0.13 µM: NCI-H226, 0.13 μM; for cytotoxicity at 0.41 µM: NCI-H226, 0.41 μM; for cytotoxicity at 1.23 µM: NCI-H226, 1.23 μM; for cytotoxicity at 3.7 µM: NCI-H226, 3.7 μM; for cytotoxicity at 11.11 µM: NCI-H226, 11.11 μM; for cytotoxicity at 33.33 µM: NCI-H226, 33.33 μM; for cytotoxicity at 100 µM: NCI-H226, 100 μM
Summary of the method: as §1

[5] = In vitro cytotoxicity by MTT assay, NCI-H226; type: cell-based; settings: human, NCI-H226 lung cancer cells, 0.015 μM, read-out: % Cytotoxicity (100 − % cell survival) of NCI-H226 cell line
Summary of the method: as §1

Structure (SMILES)	cytotoxic activity compared with all synthesized compounds [1]	cytotoxicity at 72 h, 0.005 µM [2]	cytotoxicity at 72 h, 0.015 µM [2]	cytotoxicity at 72 h, 0.045 µM [2]	cytotoxicity at 72 h, 0.13 µM [2]	cytotoxicity at 72 h, 0.41 µM [2]	cytotoxicity at 72 h, 1.23 µM [2]	cytotoxicity at 72 h, 3.7 µM [2]	cytotoxicity at 72 h, 11.11 µM [2]	cytotoxicity at 72 h, 33.33 µM [2]	cytotoxicity at 72 h, 100 µM [2]	cytotoxicity at 0.005 µM [3]	cytotoxicity at 0.015 µM [3]	cytotoxicity at 0.045 µM [3]	cytotoxicity at 0.13 µM [3]	cytotoxicity at 0.41 µM [3]	cytotoxicity at 1.23 µM [3]	cytotoxicity at 3.7 µM [3]	cytotoxicity at 11.11 µM [3]	cytotoxicity at 33.33 µM [3]	further results
CC(=O)Nc1ccc(S(=O)(=O)Nc2nnc(S(=O)(=O)NC(=O)c3ccc([N+](=O)[O-])cc3)s2)cc1 [Compound 6e]	moderate activity	39.1%	42%	42.7%	43.4%	45.3%	47.1%	49.1%	49.9%	51.2%	55%	27.1%	28%	28.1%	28.7%	29.4%	30.1%	31.1%	32.5%	34.8%	cytotoxicity at 100 µM [3]: 37.3%; cytotoxicity at 0.005 µM [4]: 38.8%; cytotoxicity at 0.045 µM [4]: 42.4%; cytotoxicity at 0.13 µM [4]: 45.4%; cytotoxicity at 0.41 µM [4]: 47.6%; cytotoxicity at 1.23 µM [4]: 48.6%; cytotoxicity at 3.7 µM [4]: 49.2%; cytotoxicity at 11.11 µM [4]: 50.8%; cytotoxicity at 33.33 µM [4]: 51.1%; cytotoxicity at 100 µM [4]: 54.5%; cytotoxicity at 72 h, 0.015 µM [5]: 41.2%
CC(=O)Nc1ccc(S(=O)(=O)Nc2nnc(S(=O)(=O)NC(=O)c3cccc([N+](=O)[O-])c3)s2)cc1 [Compound 6f]	more potent	39.3%	42.2%	45.4%	47.2%	49.1%	51.2%	54.2%	58.6%	59.3%	62.4%	29.1%	30.1%	32.1%	33.4%	35.8%	37.2%	40.6%	42.2%	45.3%	CC50 (50% cytotoxic concentration) at 72 h ([2]; HEK 293, concentration at which 50 % of the cells are dead, read-out: CTCC50 (cytotoxicity concentration)): 1120 nM; cytotoxicity at 100 µM [3]: 50.8%; cytotoxicity at 0.005 µM [4]: 41.3%; cytotoxicity at 0.045 µM [4]: 46.5%; cytotoxicity at 0.13 µM [4]: 48.3%; cytotoxicity at 0.41 µM [4]: 51.3%; cytotoxicity at 1.23 µM [4]: 54.6%; cytotoxicity at 3.7 µM [4]: 55.2%; cytotoxicity at 11.11 µM [4]: 57.1%; cytotoxicity at 33.33 µM [4]: 59.6%; cytotoxicity at 100 µM [4]: 66%; cytotoxicity at 72 h, 0.015 µM [5]: 44.9%
Nc1ccc(S(=O)(=O)Nc2nnc(S(=O)(=O)NC(=O)c3cccc([N+](=O)[O-])c3)s2)cc1 [Compound 7f]	more potent	33.2%	35.1%	36%	37%	37.5%	38.7%	39.5%	40.6%	41.2%	43.8%	42.4%	45.8%	47.2%	50.1%	52.2%	54.2%	56.7%	58.6%	60.3%	cytotoxicity at 100 µM [3]: 64.1%; cytotoxicity at 0.005 µM [4]: 38.8%; cytotoxicity at 0.045 µM [4]: 40.1%; cytotoxicity at 0.13 µM [4]: 42.6%; cytotoxicity at 0.41 µM [4]: 46.1%; cytotoxicity at 1.23 µM [4]: 52.1%; cytotoxicity at 3.7 µM [4]: 56.4%; cytotoxicity at 11.11 µM [4]: 60.7%; cytotoxicity at 33.33 µM [4]: 65.8%; cytotoxicity at 100 µM [4]: 68%; CC50 ([4]; NCI-H226, concentration at which 50 % of the cells are dead, read-out: CTC50 (cytotoxicity concentration)): 1780 nM; cytotoxicity at 72 h, 0.015 µM [5]: 39.3%
Nc1nnc(S(=O)(=O)NC(=O)c2ccccc2)s1 [Compound 4a, 5-amino-1,3,4-thiadiazol-2-[N-(benzoyl)]sulphonamide]	less activity	25.6%	25.8%	26.6%	26.9%	28.2%	28.5%	28.9%	29.5%	31.7%	33%	20.1%	22.6%	23.1%	24.6%	25.4%	25.9%	26.3%	27.4%	28.1%	cytotoxicity at 100 µM [3]: 28.7%; cytotoxicity at 0.005 µM [4]: 22.4%; cytotoxicity at 0.045 µM [4]: 24.2%; cytotoxicity at 0.13 µM [4]: 24.9%; cytotoxicity at 0.41 µM [4]: 25.5%; cytotoxicity at 1.23 µM [4]: 26.1%; cytotoxicity at 3.7 µM [4]: 26.6%; cytotoxicity at 11.11 µM [4]: 27.1%; cytotoxicity at 33.33 µM [4]: 27.5%; cytotoxicity at 100 µM [4]: 27.9%; cytotoxicity at 72 h, 0.015 µM [5]: 23.1%
